According to US8709821B2, “Luminescent substrate for liciferase” (The University of Electro-Communications, priority 2008, dated 2014):
Several values for one entry are separate records, joined by “and”; a condition that tells them apart may be missing. Equal entries are not always repeated.

Assays:
[1] = luciferin derivative, patent document 1; cited from earlier work
[2] = biological target: T1, luciferase (derived from Photinus pyralis of North America product firefly) (Photinus pyralis, UniProt P08659); experiment: Measurement of the bioluminescence spectra (luminescent spectrum of substrate with luciferase, ATP-Mg); format: biochemical; conditions: for luminescent wavelength (maximum wavelength of the bioluminescence spectrum): potassium phosphate buffer pH 8.0, substrate solution 2.5 mM, exposure 60 seconds; for color of the luminescence: FIG. 1
T1 construct: purchased Sigma-Aldrich Corporation or Promega KK
Procedure: Measurement of Luminescent Spectrum
They were measured using feeble luminescence fluorescent spectra device AB-1850 manufactured by ATTO Co., Ltd. All the measured spectra were the spectra which calibrated with the characteristic of the detector.
For the luciferase (derived from Photinus pyralis of North America product firefly), was used the recombination type manufactured by Sigma-Aldrich Corporation or Promega KK.
For ATP-Mg the product manufactured by Sigma-Aldrich Corporation was used.
The Substrate was weighted with an electronic balance, and it was diluted. The phosphate-buffered saline (50 mM, pH 6.0) was used in the case of the chemiluminescence measurement, and t-butanol was used in the case of the bioluminescence as a solvent.
The luciferase was diluted with Tris-HCl buffer solution (50 mM, pH 8.0 s) to become 1 μg/μl and divided. This was used as stocked solution, so that was diluted to be used each time. Note that, the stock solutions were stored in a freezer of −80 degrees Celsius.
ATP-Mg was diluted in the ultra pure water.
The solution of a potassium phosphate buffer (0.5 M, pH 8.0, 20 μl), the solution of substrate (2.5 mM, 20 μl) and enzyme solution (20 μl), then ATP-Mg solution (ten mM, 40 μl) were mixed in a 200 μL of a polystyrene tube, and measured the luminescent spectrum. The enzyme solution was used at the concentration of 17 μM, provided that enzymes at 1.7 μM and at 170 μM were used in the firefly luciferin (1) and the phenol type luciferin respectively. The exposure time for the measurement of the luminescent spectrum was 60 seconds, provided that the firefly luciferin was five seconds.

[3] = Photinus pyralis luciferase, ATP-Mg

T1 sequence (P08659 whole entry): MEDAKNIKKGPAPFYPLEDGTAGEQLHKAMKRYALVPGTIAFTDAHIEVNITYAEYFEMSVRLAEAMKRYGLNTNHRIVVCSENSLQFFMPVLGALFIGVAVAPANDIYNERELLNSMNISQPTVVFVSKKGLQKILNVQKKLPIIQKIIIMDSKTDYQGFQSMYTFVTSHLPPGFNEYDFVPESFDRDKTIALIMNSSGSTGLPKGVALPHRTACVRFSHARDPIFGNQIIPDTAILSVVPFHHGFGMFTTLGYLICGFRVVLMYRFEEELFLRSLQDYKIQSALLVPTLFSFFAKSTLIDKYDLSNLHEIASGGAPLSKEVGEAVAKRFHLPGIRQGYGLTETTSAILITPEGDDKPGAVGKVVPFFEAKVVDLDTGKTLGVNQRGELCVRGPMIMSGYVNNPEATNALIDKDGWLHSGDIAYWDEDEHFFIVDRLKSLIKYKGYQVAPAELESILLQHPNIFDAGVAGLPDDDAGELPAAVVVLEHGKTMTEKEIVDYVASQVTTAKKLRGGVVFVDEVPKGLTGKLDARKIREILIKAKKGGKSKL

## Nc1ccc2nc(C3=N[C@@H](C(=O)O)CS3)sc2c1 [Aminoluciferin]
[1]
  luminescence wavelength: About 610 nm

## O=C(O)[C@H]1CSC(c2ccc(O)cc2)=N1 [analogs 7]
[2]; [3]
  luminescent wavelength (maximum wavelength of the bioluminescence spectrum): 415 nm
other
  melting point: 200 to 204 °C (dec.)

## O=C(O)[C@H]1CSC(/C=C/c2ccc(O)cc2)=N1 [analogs 8]
[2]; [3]
  luminescent wavelength (maximum wavelength of the bioluminescence spectrum): 520 nm
other
  melting point: 138 to 140 °C (dec.)

## O=C(O)[C@H]1CSC(/C=C/c2cccc(O)c2)=N1 [analogs 9]
[2]; Photinus pyralis luciferase, ATP-Mg, pH 8.0
  luminescent activity as substrate: did not luminescent
other
  melting point: 163 to 165 °C (dec.)

## CN(C)c1ccc(/C=C/C=C/C2=N[C@@H](C(=O)O)CS2)cc1 [analogs II, dimethyl aniline-diene type luciferin]
[2]
  color of the luminescence: blue
[2]; [3]
  luminescent wavelength (maximum wavelength of the bioluminescence spectrum): 445 nm and > 680 nm

## CN(C)c1ccc(/C=C/C2=N[C@@H](C(=O)O)CS2)cc1 [analogs III, dimethyl aniline-monoene type luciferin]
[2]
  color of the luminescence: yellow green
[2]; [3]
  luminescent wavelength (maximum wavelength of the bioluminescence spectrum): 565 nm

## CN(C)c1ccc(C2=N[C@@H](C(=O)O)CS2)cc1 [analogs IV, dimethyl aniline type luciferin]
[2]
  color of the luminescence: red
[2]; Photinus pyralis luciferase, ATP-Mg, listed as IV
  luminescent wavelength (maximum wavelength of the bioluminescence spectrum): 680 nm and 445 nm
[2]; Photinus pyralis luciferase, ATP-Mg, listed as dimethyl aniline type luciferin
  luminescent wavelength (maximum wavelength of the bioluminescence spectrum): about 445 nm
